Publication PMC7998250, “Temperate Zone Plant Natural Products—A Novel Resource for Activity against Tropical Parasitic Diseases” (Pharmaceuticals, 2021)
pEC50: −log10 of the molar value. Read-outs that look alike come from different tables or passages of the source.

Columns and labels:
T. brucei = experiment: Concentration-response EC50, T. brucei; type: cell-based, Trypanosoma brucei brucei; settings: for pEC50: 48 h; for selectivity index (HepG2 CC50 / T. brucei EC50): preliminary selectivity against HepG2
[1] = test system: P. falciparum Dd2Luc intraerythrocytic trophozoites; experiment: Initial screen, intraerythrocytic P. falciparum, Malaria SYBR-Green I fluorescence assay; type: cell-based, Plasmodium falciparum; settings: for activity at 2 µM / inhibition of growth at 2 µM: Plasmodium falciparum, 48 h; for initial hit against P. falciparum: 2 μM, growth reduced by ≥50%; for inhibition of growth at 2 µM: read-out: initial hit P.f
Outline: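 L. mexicana axenic amastigotes at 1 × 10^6 cells/mL exposed 72 h to compounds at 2 μM, growth read by Alamar Blue; P. falciparum trophozoites at 0.5% parasitaemia, 2% haematocrit, 48 h at 2 μM, SYBR-Green I read-out. Growth normalised to 1% DMSO; hits ≥50% growth reduction.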

[2] = test system: T. evansi bloodstream form; experiment: Initial screen, T. evansi bloodstream form, Alamar Blue; type: cell-based, Trypanosoma evansi; settings: Trypanosoma evansi; for activity at 1 µM: initial screen
Outline: (§1)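 Bloodstream-form T. evansi Antat 3/3 and T. brucei Lister 427 were grown in HMI-11 with 10% FBS at 37 °C. Parasites were plated at 1×10^5 cells/mL with compound at 1 μM (T. evansi) or 2 μM (T. brucei) for 48 h, and growth was read by Alamar Blue relative to 1% DMSO controls (n = 6).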

[3] = test system: T. brucei bloodstream form; experiment: Initial screen, T. brucei bloodstream form, Alamar Blue; type: cell-based, Trypanosoma brucei brucei; settings: for initial hit against T. brucei: growth reduced by ≥50%; for inhibition of growth at 2 µM / activity at 2 µM: Trypanosoma brucei; for inhibition of growth at 2 µM: read-out: initial hit T.b
Outline: as §1

[4] = Cytotoxicity CC50, HepG2, Alamar Blue; settings: human
Source text: (§2) Initial hits from the parasite panel screen were taken forward in log concentration versus normalised response assays to estimate the half maximal effective concentration (EC50) in hit species as well as the half maximal cytotoxic concentrations (CC50) in the human hepatoma cell line HepG2 as a preliminary test for selectivity. Using CC50/EC50 to define the selectivity index (SI), the selectivity for each compound in a defined species compared to a human cell line was estimated and compared to the EC50 (Figure 3).
(§3) L. mexicana strain MNYC/BZ/62/M379 and L. donovani strain LdBOB (a clonal line from strain MHOM/SD/62/1S-CL2) were maintained in vitro in the procyclic promastigote stage. Parasites were cultivated at 26 °C in Schneider’s medium (Gibco) pH 7.0 containing 10% FBS, 100 U/mL penicillin (Lonza) and 100 μg/mL streptomycin (Lonza) as previously described. Differentiation into axenic amastigotes was performed as described previously. Briefly, axenic amastigotes were cultivated at 32 °C in Schneider’s medium pH 5.5 containing 10% FBS, 100 U/mL penicillin (Lonza) and 100 μg/mL streptomycin (Lonza). Bloodstream form T. brucei brucei strain Lister 427 and T. evansi strain Antat 3/3 [59] were maintained in vitro at 37 °C with 5% (v/v) CO2 in HMI-11 medium supplemented with 10% FBS, as described elsewhere. Intraerythrocytic cultures of P. falciparum Dd2^Luc strain [62] were maintained at 37 °C in a 1% O2:3% CO2:96% N2 atmosphere in RPMI-1640 containing 37.5 mM HEPES, 5 mM NaOH, 10 mM D-glucose, 2 mM L-glutamine, 100 μM hypoxanthine, […] gentamicin sulfate, 5% human serum and 5% albumax-II and 2% haematocrit erythrocytes. When required, cultures were synchronised to ring stages using the sorbitol lysis method. Preliminary cytotoxicity screening was assessed using HepG2 cells. These cells were maintained in vitro at 37 °C with 5% (v/v) CO2 in DMEM (Sigma) pH 7 supplemented with 10% FBS, 100 U/mL penicillin (Lonza) and 100 μg/mL streptomycin (Lonza), as previously described. The human monocyte cell line THP-1 [68] was maintained in vitro by culturing at 37 °C with 5% (v/v) CO2 in complete RPMI medium (Dutch modified RPMI-1640 (Gibco) containing 10% FBS and 2 mM L-glutamine (Gibco)). Differentiation of THP-1 cells into macrophages was performed by seeding 2.5 × 10^5 cells/mL in complete RPMI media, supplemented with 20 ng/mL phorbol 12-myristate 13-acetate (PMA), followed by incubation at 37 °C with 5% (v/v) CO2 for 24 h.
(§4) EC50 values were determined by serial two-fold dilution of each compound in 96 well plates. Culture conditions and viability assays were as stated for the initial screen, with some exceptions. L. mexicana and L. donovani axenic amastigotes were seeded at 2 × 10^6 cell/s mL, T. brucei and T. evansi were seeded at 2 × 10^5 cells/mL. For cytotoxicity studies, HepG2 cells were seeded at 1 × 10^5 cells/mL, incubated for 48 h and viability was assessed using the Alamar Blue assay. Differentiated THP-1 cells were seeded at 5 × 10^4 cells/mL, incubated for 48 h, and viability was assessed by the Alamar Blue assay. Normalised growth and viability data (compared to untreated controls) were plotted against Log10 concentration to estimate EC50 in GraphPad (Prism v6). Bioluminescence relative rate of kill assays in asexual intraerythrocytic P. falciparum Dd2^Luc were carried out as described.

HepG2 cells = experiment: Cytotoxicity CC50, HepG2, Alamar Blue; settings: 48 h
Source text: as §2, §3, §4

[5] = test system: L. mexicana axenic amastigotes; experiment: Initial screen, L. mexicana axenic amastigotes, Alamar Blue; type: cell-based, Leishmania mexicana; settings: Leishmania mexicana
Outline: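 Purified temperate plant natural products from a commercial library (1 mg/mL in DMSO) were tested against Leishmania mexicana axenic amastigotes at a final 2 μM. Parasites were seeded at 1 × 10^6 cells/mL in 96-well plates containing 200 μL culture and incubated 72 h. Growth was measured by Alamar Blue and normalised to DMSO controls (1% v/v), with triplicates over two biological replicates (n = 6).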

P. falciparum Dd2Luc = experiment: Concentration-response EC50, P. falciparum Dd2Luc; type: cell-based, Plasmodium falciparum; settings: Plasmodium falciparum, 48 h, read-out: P. falciparum Dd2Luc EC50, intraerythrocytic, 48 h
Method: EC50 values were determined by serial two-fold dilution of each compound in 96 well plates. Culture conditions and viability assays were as stated for the initial screen, with some exceptions. L. mexicana and L. donovani axenic amastigotes were seeded at 2 × 10^6 cell/s mL, T. brucei and T. evansi were seeded at 2 × 10^5 cells/mL. For cytotoxicity studies, HepG2 cells were seeded at 1 × 10^5 cells/mL, incubated for 48 h and viability was assessed using the Alamar Blue assay [66, 67]. […] Normalised growth and viability data (compared to untreated controls) were plotted against Log10 concentration to estimate EC50 in GraphPad (Prism v6).

P. falciparum 3D7 = experiment: Concentration-response EC50, P. falciparum 3D7; type: cell-based; settings: Plasmodium falciparum
Source text: This is not surprising as the rate of kill is a result of the mechanism of cell death and, given their structural similarity, these three bisobolane sesquiterpene glycosides likely share the same target(s), albeit with some differences in affinity. The rate of kill, relatively, falls between that of atovaquone and dihydroartemisinin and is more similar to that of chloroquine.

T. evansi = experiment: Concentration-response EC50, T. evansi; type: cell-based; settings: Trypanosoma evansi, 48 h, read-out: T. evansi EC50
[6] = Trypanosoma brucei, bloodstream form, read-out: T. brucei EC50
[7] = read-out: %growth P. falciparum, mean % growth compared to a normalised control with same concentration of DMSO solvent, initial screen
[8] = Trypanosoma brucei, read-out: T. brucei EC50, bloodstream form, 48 h
[9] = read-out: % growth L. mexicana, mean % growth compared to a normalised control with same concentration of DMSO solvent, initial screen
[10] = 3D7, read-out: P. falciparum 3D7 EC50
[11] = read-out: % growth T. b. brucei, mean % growth compared to a normalised control with same concentration of DMSO solvent, initial screen
[12] = mean % growth compared to a normalised control with same concentration of DMSO solvent, initial screen
[13] = read-out: mean % growth, P. falciparum, initial screen, compared to a normalised control with same concentration of DMSO solvent
[14] = compared to a normalised control with same concentration of DMSO solvent, read-out: mean % growth, T. evansi
[15] = read-out: mean % growth, L. mexicana, initial screen, compared to a normalised control with same concentration of DMSO solvent
[16] = 3D7, intraerythrocytic, read-out: P. falciparum 3D7 EC50
[17] = initial screen, compared to a normalised control with same concentration of DMSO solvent, read-out: mean % growth, T. b. brucei

SMILES | pEC50 (T. brucei; [6]) | activity at 2 µM [1, 7] [%] | initial hit against T. brucei ([3]; 2 μM) | inhibition of growth at 2 µM ([3]; 2 μM, x = initial hit) [%] | selectivity index (HepG2 CC50 / T. brucei EC50) (T. brucei) | initial hit against P. falciparum [1] | inhibition of growth at 2 µM [1] [%] | activity at 2 µM [5, 9] [%] | pEC50 (P. falciparum Dd2Luc) | pEC50 (P. falciparum 3D7; [10]) | activity at 2 µM [1, 13] [%] | activity at 2 µM [5, 15] [%] | activity at 2 µM [3, 17] [%] | CC50 at 48 h ([4]; pH 7, HepG2 CC50) [nM] | also measured
CC(=O)OC1C(C)OC(OC2C(OC(=O)C3CC[C@@H]4[C@H](C3)OC3(CC(OC(=O)/C=C/c5ccccc5)[C@@H](C)CO3)C4(O)CO)OC(C)C(O)C2OC(C)=O)C(O)C1O (stereo partly drawn) [Compound 700035] | 6.46 | 90.1 | initial hits | > 50 |  |  |  |  |  |  |  |  |  |  | pEC50 (T. brucei; bloodstream form, read-out: T. brucei EC50): 6.44; activity at 1 µM ([2]; mean % growth compared to a normalised control with same concentration of DMSO solvent, read-out: % growth T. evansi): 105%; CC50 at 48 h ([4]; pH 7, HepG2 CC50, 48 h): 15200 nM; CC50 (HepG2 cells; read-out: HepG2 CC50): 15000 nM
CC(=O)OC1C(O)C(C)OC(OC2C(OC(=O)C3CC[C@@H]4[C@H](C3)OC3(CC(OC(=O)/C=C/c5ccccc5)[C@@H](C)CO3)C43CO3)OC(CO)C(O)C2O)C1O (stereo partly drawn) [Compound 700046] |  | 9.8 | initial hits |  | > 10 | initial hits | > 50 | 83.4 | 7.25 | 7.47 |  |  |  |  | pEC50 (T. brucei; [8]): 6.74; activity at 1 µM ([2]; read-out: % growth T. evansi, mean % growth compared to a normalised control with same concentration of DMSO solvent): 2.9%; inhibition of growth at 1 µM ([2]; read-out: initial hit T.e): > 50%; activity at 2 µM [3, 11]: 5.6%; inhibition of growth at 2 µM [3]: > 50%; pEC50 (T. evansi): 6.93
CC(=O)OC1C(O)C(C)OC(OC2C(OC(=O)C3CC[C@@H]4[C@H](C3)OC3(CC(OC(=O)/C=C/c5ccccc5)[C@@H](C)CO3)C43CO3)OC(CO)C(O)C2OC(C)=O)C1O (stereo partly drawn) [Compound 700048] |  |  | initial hits |  | > 10 | initial hits | > 50 | 89 | 6.82 | 6.44 |  |  |  |  | pEC50 (T. brucei; [8]): 6.80; %growth P. falciparum [1, 12]: 20.3%; inhibition of growth at 2 µM [3]: > 50%; % growth T. b. brucei [3, 12]: 5.8%
COc1cc(/C=C/C(=O)OC2CC3(C[C@H]4C=C(C(=O)OC5OC(CO)C(O)C(OC(C)=O)C5OC5OC(C)C(O)C(OC(C)=O)C5O)CC[C@H]4C34CO4)OC[C@@H]2C)ccc1O (stereo partly drawn) [Compound 700104] |  | 31.6 |  |  |  | initial hits | > 50 | 146 | 6.12 | 6.46 |  |  |  |  | activity at 2 µM [3, 11]: 69.7%
C=C1C(OC(=O)/C=C/c2ccccc2)C(CC(C)=O)C(O)C2(C)CCC3=C(C)C(OC(C)=O)CC(CC12)C3(C)C (stereo not drawn) [Compound 700535] |  |  |  |  |  | initial hits | > 50 |  | 5.64 |  | 31 | 68.2 | 99.4 |  | activity at 1 µM [2, 14]: 78.7%; pEC50 (P. falciparum 3D7; [16]): 5.48
CC1(C)OC2CC(=O)C=CC2(c2cc(=O)c3c(O)cc(O)cc3o2)O1 (stereo not drawn) [Compound 700585] | 6.37 |  | initial hits | > 50 | > 10 |  |  |  |  |  | 95.2 | 78 | 40.8 | < 10000 | CC50 (HepG2 cells; human, pH 7): 5300 nM
CC(=O)OC1C(COC(=O)/C=C/c2ccc(O)cc2)OC(Oc2c(-c3ccc(O)cc3)oc3cc(O)cc(O)c3c2=O)C(OC(=O)/C=C/c2ccc(O)cc2)C1OC(C)=O (stereo not drawn) [Compound 701082] | 5.96 |  | initial hits | > 50 |  |  |  |  | 5.92 |  | 77 | 67.8 | 5 | 4600 | pEC50 (P. falciparum 3D7; [16]): 5.80
COC(=O)C1=COC(O)C2C1CC(OC(=O)/C=C/c1ccc(O)cc1)C2C (stereo not drawn) [Compound 701145] | 6.28 |  | initial hits | > 50 |  |  |  |  |  |  | 96 | 48.9 | 3.4 | 27800 | activity at 1 µM [2, 14]: 118%; CC50 (HepG2 cells; human, pH 7): 28000 nM
